From PubChem BioAssay (NCI) come the findings set out here.

Test systems include A549 NSCLC; BT-549 breast; EKVX NSCLC; HCT-116 colon; HCT-15 colon; HT29 colon; OVCAR-8 ovarian; SF-268 CNS; SK-MEL-2 melanoma; SN12C renal.
What all share (test): NCI-60 cell line screen, 48 h

Molecules are shown by their SMILES.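 Each compound was tested at five concentrations against cells in 96-well plates for 48 hours. GI50 is the concentration that inhibits growth by half. The concentration for full growth arrest is given as TGI.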

For the molecule `Cc1ccc([N+](=O)[O-])c2c(NCCNC(=O)c3cc(C(=O)NCCNc4ccnc5c(C)ccc([N+](=O)[O-])c45)n(C)n3)ccnc12`, the TGI in the test with A549 NSCLC is more than 68.8 µM; with BT-549 breast it was more than 100 µM; in the test on EKVX NSCLC, more than 100 µM; in the test on HCT-116 colon, more than 100 µM; with HCT-15 colon, more than 100 µM; in the test with HT29 colon, more than 100 µM. Further, the TGI was more than 100 µM in the test on OVCAR-8 ovarian, more than 100 µM in the test with SF-268 CNS, more than 100 µM with SK-MEL-2 melanoma and more than 70.9 µM in the test on SN12C renal.
Regarding `CNCCCNc1nc2ccccc2c2c(=O)c3cc(OC)ccc3sc12`, the GI50 was 1.84 µM in the test on A549 NSCLC; 12800 nM with BT-549 breast; 1.72 µM with EKVX NSCLC; 1780 nM in the test with HCT-116 colon; 1520 nM in the test on HCT-15 colon; 1720 nM with HT29 colon. Further, the GI50 with OVCAR-8 ovarian is 2170 nM; in the test on SF-268 CNS it was 1710 nM; in the test with SK-MEL-2 melanoma it was 2040 nM; in the test on SN12C renal, 1670 nM. In addition, the TGI amounted to 3.82 µM with A549 NSCLC; 26.8 µM in the test with BT-549 breast; 3.7 µM in the test on EKVX NSCLC; 3.52 µM in the test with HCT-116 colon; 2.95 µM in the test with HCT-15 colon; 3.56 µM in the test on HT29 colon. In addition, the TGI with OVCAR-8 ovarian amounted to 5.34 µM; in the test on SF-268 CNS it was 3.42 µM; in the test on SK-MEL-2 melanoma, 4.44 µM; in the test on SN12C renal it was 3.28 µM.
Turning to `COC(=O)c1c(-c2cccs2)oc(-c2cccs2)c1C(=O)OC`, the GI50 is 39.1 µM with A549 NSCLC; 52000 nM in the test with BT-549 breast; 56.8 µM in the test on EKVX NSCLC; 30300 nM in the test with HCT-116 colon; 27500 nM in the test with HCT-15 colon; 60200 nM in the test with HT29 colon. The GI50 in the test on OVCAR-8 ovarian is 37600 nM; with SF-268 CNS, 42000 nM; in the test on SK-MEL-2 melanoma, 39500 nM; in the test on SN12C renal it was 61600 nM. Also, the TGI in the test with A549 NSCLC, in the test with BT-549 breast, in the test on EKVX NSCLC, with HCT-116 colon, in the test with HCT-15 colon and in the test on HT29 colon was more than 100 µM each time. Also, the TGI in the test with OVCAR-8 ovarian, in the test with SF-268 CNS, in the test on SK-MEL-2 melanoma and with SN12C renal was more than 100 µM each time.
Regarding `O=C(O)/C(Cc1cn[nH]n1)=N\O`, the TGI in the test with A549 NSCLC, with BT-549 breast, in the test on EKVX NSCLC, in the test with HCT-116 colon, with HCT-15 colon and with HT29 colon was more than 100 µM in each case. Besides, the TGI in the test with OVCAR-8 ovarian, in the test on SF-268 CNS, with SK-MEL-2 melanoma and in the test on SN12C renal was more than 100 µM each time.
With `C=C1C(O)C2CC(C)(CO)C(=O)C2=C(CC(C)C)C12CC2` (stereo not given), the GI50 was 59.8 µM with A549 NSCLC; more than 100000 nM in the test on BT-549 breast; 69.5 µM in the test with EKVX NSCLC; 38700 nM in the test on HCT-116 colon; 82300 nM in the test with HCT-15 colon; more than 100000 nM in the test with HT29 colon. Also, the GI50 in the test on OVCAR-8 ovarian was 77800 nM; in the test with SF-268 CNS it was more than 100000 nM; in the test on SK-MEL-2 melanoma, more than 100000 nM; in the test on SN12C renal, more than 100000 nM. The TGI in the test with A549 NSCLC, in the test with BT-549 breast, with EKVX NSCLC, in the test with HCT-116 colon, in the test with HCT-15 colon and in the test with HT29 colon was more than 100 µM throughout. The TGI in the test on OVCAR-8 ovarian, with SF-268 CNS, with SK-MEL-2 melanoma and in the test with SN12C renal was more than 100 µM each time.
With `CCCCC#Cc1c(I)n(C)c(=O)[nH]c1=O`, the GI50 was 19.3 µM in the test with A549 NSCLC; 1940 nM with BT-549 breast; 15.7 µM in the test with EKVX NSCLC; 1700 nM in the test with HCT-116 colon; 1520 nM in the test on HCT-15 colon; 2270 nM in the test on HT29 colon. Besides, the GI50 in the test with OVCAR-8 ovarian is 3360 nM; in the test with SF-268 CNS it was 2680 nM; in the test on SK-MEL-2 melanoma, 1930 nM; with SN12C renal, 13200 nM. Further, the TGI in the test on A549 NSCLC came to 34.9 µM; with BT-549 breast, 4.55 µM; in the test with EKVX NSCLC, 29.1 µM; in the test with HCT-116 colon, 3.07 µM; in the test on HCT-15 colon it was 2.87 µM; in the test on HT29 colon, 5.08 µM. The TGI in the test on OVCAR-8 ovarian amounted to 10.1 µM; in the test on SF-268 CNS, 7.64 µM; with SK-MEL-2 melanoma it was 4.06 µM; in the test with SN12C renal, 26.5 µM.
Consider `CN1Cc2ccccc2/C=C\c2ccccc21`, for which the TGI with A549 NSCLC was more than 100 µM; with BT-549 breast, more than 100 µM; in the test with EKVX NSCLC, 92.7 µM; in the test on HCT-116 colon, more than 100 µM; with HCT-15 colon it was more than 100 µM; in the test on HT29 colon, more than 100 µM. In addition, the TGI in the test on OVCAR-8 ovarian is more than 100 µM; in the test with SF-268 CNS it was more than 100 µM; in the test on SK-MEL-2 melanoma it was 80.2 µM; in the test with SN12C renal, more than 100 µM.
In the case of `COc1ccc(C(=O)c2cc(C)c(OC)c(C)c2)c(OC)c1NC(C)=O`, the GI50 in the test on A549 NSCLC was 0.389 µM; in the test on BT-549 breast it was 258 nM; with EKVX NSCLC it was 0.251 µM; in the test on HCT-116 colon it was 439 nM; in the test with HCT-15 colon, 452 nM; in the test with HT29 colon, 468 nM. For the same molecule, the GI50 in the test with OVCAR-8 ovarian is 419 nM; with SF-268 CNS, 1820 nM; in the test on SK-MEL-2 melanoma, more than 100000 nM; with SN12C renal, 448 nM. Moreover, the TGI in the test with A549 NSCLC, with BT-549 breast, in the test with EKVX NSCLC, with HCT-116 colon, in the test with HCT-15 colon and with HT29 colon was more than 100 µM each time. Besides, the TGI in the test with OVCAR-8 ovarian, with SF-268 CNS, in the test with SK-MEL-2 melanoma and in the test with SN12C renal was more than 100 µM each time.
Take `O=C(CN(/C=C/C(=O)C(F)(F)F)c1ccc(Cl)cc1)c1ccc(Cl)c(Cl)c1`: the GI50 with A549 NSCLC was 7.09 µM; with BT-549 breast, 16700 nM; with EKVX NSCLC, 14.5 µM; in the test with HCT-116 colon it was 3540 nM; in the test with HCT-15 colon, 4240 nM; in the test with HT29 colon it was 3960 nM. Also, the GI50 with OVCAR-8 ovarian is 10700 nM; in the test with SF-268 CNS, 4130 nM; in the test on SK-MEL-2 melanoma, 7150 nM; in the test with SN12C renal, 2380 nM. Besides, the TGI in the test on A549 NSCLC was 21.5 µM; with BT-549 breast, 33.3 µM; in the test with EKVX NSCLC, 29.3 µM; in the test on HCT-116 colon, 13.2 µM; in the test with HCT-15 colon, 17.2 µM; in the test on HT29 colon, more than 100 µM. Besides, the TGI in the test with OVCAR-8 ovarian stood at 28.8 µM; in the test on SF-268 CNS, 16.4 µM; in the test with SK-MEL-2 melanoma, 20.7 µM; with SN12C renal, 5.43 µM.
On to `CS(=O)(=O)OCCCNCCCOS(C)(=O)=O`, for which the TGI with A549 NSCLC was 4550 µM; in the test with BT-549 breast, 4500 µM; in the test on EKVX NSCLC, 6030 µM; in the test with HCT-116 colon, 5670 µM; in the test on HCT-15 colon it was 4680 µM; in the test on HT29 colon, 4480 µM. Moreover, the TGI with OVCAR-8 ovarian is 6630 µM; with SF-268 CNS, 7620 µM; in the test with SK-MEL-2 melanoma it was 3690 µM; with SN12C renal, 3830 µM.
As to `O=[N+]([O-])c1ccc(Cl)c(CNc2ncnc3c2ncn3C2CCCCO2)c1` (stereo not given), the TGI with A549 NSCLC, in the test on BT-549 breast, with EKVX NSCLC, with HCT-116 colon, in the test with HCT-15 colon and with HT29 colon was more than 100 µM throughout. In addition, the TGI in the test on OVCAR-8 ovarian, in the test with SF-268 CNS, in the test with SK-MEL-2 melanoma and in the test with SN12C renal was more than 100 µM each time.
In the case of `COc1ccc(/C=C/c2c(C(=O)/C=C/c3ccc(C(F)(F)F)cc3)c(C)nc3ccccc23)cc1`, the GI50 with A549 NSCLC is 2.71 µM; with BT-549 breast, 1800 nM; with EKVX NSCLC, 1.72 µM; with HCT-116 colon, 414 nM; in the test with HCT-15 colon it was 1140 nM; with HT29 colon it was 1130 nM. The GI50 in the test with OVCAR-8 ovarian is 2220 nM; in the test on SF-268 CNS it was 1800 nM; with SK-MEL-2 melanoma, 2050 nM; with SN12C renal it was 2020 nM. In addition, the TGI with A549 NSCLC was 8.57 µM; with BT-549 breast it was 4 µM; in the test on EKVX NSCLC, 4.49 µM; with HCT-116 colon, 1.97 µM; in the test with HCT-15 colon it was 4.59 µM; in the test on HT29 colon it was 6.6 µM. Further, the TGI in the test with OVCAR-8 ovarian is more than 100 µM; in the test with SF-268 CNS it was 3.67 µM; in the test with SK-MEL-2 melanoma, 4.64 µM; with SN12C renal it was 5.66 µM.
Turning to `CC/C(Cc1ccccc1)=C(\c1ccc(OCCN2CCCC2)cc1)c1ccc(OC(=O)NCc2ccccc2)cc1`, the GI50 with A549 NSCLC is 1.88 µM; in the test with BT-549 breast, 1790 nM; in the test with EKVX NSCLC, 2.37 µM; in the test with HCT-116 colon, 1640 nM; in the test on HCT-15 colon, 1580 nM; in the test with HT29 colon, 1820 nM. Moreover, the GI50 in the test on OVCAR-8 ovarian was 1870 nM; with SF-268 CNS it was 1810 nM; in the test with SK-MEL-2 melanoma, 2090 nM; with SN12C renal, 1810 nM. Further, the TGI with A549 NSCLC is 3.47 µM; in the test with BT-549 breast it was 3.47 µM; in the test with EKVX NSCLC, 7.39 µM; with HCT-116 colon it was 3 µM; in the test with HCT-15 colon, 3.07 µM; in the test on HT29 colon, 3.47 µM. The TGI in the test on OVCAR-8 ovarian amounted to 3.67 µM; in the test with SF-268 CNS it was 3.77 µM; with SK-MEL-2 melanoma, 3.99 µM; in the test on SN12C renal, 3.33 µM.
For the molecule `COC(=O)Nc1nc2ccccc2[nH]1`, the TGI in the test on A549 NSCLC, with BT-549 breast, in the test on EKVX NSCLC, with HCT-116 colon, in the test with HCT-15 colon and in the test on HT29 colon was more than 100 µM throughout. Moreover, the TGI in the test with OVCAR-8 ovarian was more than 89.1 µM; with SF-268 CNS, more than 100 µM; in the test with SK-MEL-2 melanoma it was more than 100 µM; with SN12C renal, more than 100 µM.
